Experimental data as given in patent publication US20090082451A1, “USE OF THYROID HORMONE CONVERSION INHIBITORS” (Trustees of Boston University, priority 2004, published 2009).
“Also recorded” adds a separate entry of the source.

Key:
epidermal proliferation = assay: Topical iopanoic acid cream in mice: epidermal thickness and BrdU incorporation; assay type: in vivo, CD-1 mice
Procedure: A topical iopanoic acid (IOP) cream was prepared by mixing IOP (Sigma, St. Louis, Mo.) into a liposome vehicle (Novasome A, IGI inc., New Jersey) previously described (Safer 2001, Safer 2003, Safer 2005). Each mouse received 30 μl of the liposome vehicle applied directly to a 3×3 cm area of shaved skin on the animal's backs. The preparation was applied daily and not removed.
The treatment groups received cream containing 6 mg IOP daily. The control groups were treated with daily application of vehicle alone.
Five week old CD-1 mice were randomized into 2 groups (FIG. 1). The groups had 6 mice each and were evaluated in a crossover study. Each mouse in the crossover study was evaluated twice: once after a 6 mg daily IOP treatment and once after treatment with vehicle alone. Six mice received IOP first followed by a 3 month wash-out/healing completion period. The animals were then evaluated after treatment with topical vehicle alone. Six mice started with vehicle alone and received the IOP treatment after the 3 month wash-out/healing completion period.
All topically treated mice were caged separately to avoid animals receiving doses from their neighbors during grooming. The cream was applied to a midline cephalad region on the animals' backs to minimize the impact of personal grooming on dosing.
Epidermal proliferation was assessed by measuring both epidermal thickness and 5-bromo-2′-deoxyuridine (BrdU, Boehringer Mannheim, Mannheim, Germany) incorporation into DNA. At the completion of the protocols noted, animals were biopsied with full thickness dorsal skin samples were taken. Three hours prior to biopsy, each mouse had received intraperitoneal BrdU as previously described (Safer 2001). Skin samples were fixed in formalin and embedded in paraffin. From each paraffin block, […] sections were made and stained with hematoxylin and eosin (H&E). Epidermal thickness was measured in 10 random locations for each mouse. Additional 5 μm skin histology sections from the above paraffin blocks were stained for BrdU as previously described (Safer 2001). BrdU data are reported as the number of cell nuclei stained/[…] epidermis.

[1] = Serum total thyroxine (T4) by radioimmunoassay in topically treated mice; assay type: in vivo, CD-1 mice; conditions: mice treated with IOP cream, relative to control mice; listed as IOP
Procedure: Serum total thyroxine levels were measured with a standard radioimmunoassay kit (ICN, Orangeburg, N.Y.). Unlike other thyroid hormone kits which use anti-mouse antibodies, the ICN kit uses anti-rabbit antibodies and avoids spuriously elevated readings in mice. Thyroid hormone levels for mice fall at the low end of the human range so the human standards included in the kit were used.

[2] = test system: human epidermal keratinocytes; assay: Human epidermal keratinocyte proliferation, 3H-thymidine incorporation; assay type: cell-based; conditions: overnight incubation; 10 μl of 1.5 mM stock per 500 μl medium; ±SEM
Procedure: (§1) Human keratinocytes were grown in primary culture on a support matrix derived from irradiated fibroblasts. When the cultures reached 40% confluence, the cells were fed basal medium alone for 24 hours and then incubated overnight in medium containing a test substance or sham. The cells were then treated with saturating quantities of ^3H-thymidine (New England Nuclear, Boston, Mass.); DNA was precipitated with 5% perchlorate and relative incorporated thymidine was assessed with a beta counter. Experiments were performed in quadruplicate and averaged. Results reported represent a minimum of three separate quadruplicate experiments.
(§2) The reagents used for tissue culture were iopanoic acid (Sigma, St. Louis, Mo.), sodium ipodate (Fitzgerald Industries International, Flanders, N.J.), and propranolol (Sigma, St. Louis, Mo.). Reagents were dissolved into modestly basic stock solutions to the following final concentrations: 0.025 mM NaOH, 0.2 M NaCl, 1.5 mM reagent. Each experiment used 10 μl of stock reagent (or sham) per 500 μl of medium. For FIGS. 13-18, the “low” concentration is 3 μM for each reagent, and the “high” concentration was 30 μM for each reagent.

[3] = test system: Human prostate (HPV) cells; assay type: cell-based; conditions: overnight incubation; 10 μl of 1.5 mM stock per 500 μl medium; ±SEM
Procedure: as §1, with “prostate (HPV) cells” for “keratinocytes”, “under standard conditions.” for “in primary culture on a support matrix derived from irradiated fibroblasts.”
as §2

[4] = test system: Opossum kidney (OK) cells; assay: Opossum kidney cell proliferation, 3H-thymidine incorporation; assay type: cell-based; conditions: overnight incubation; 10 μl of 1.5 mM stock per 500 μl medium; ±SEM
Procedure: as §1, with “Opossum kidney (OK) cells” for “Human keratinocytes”, “under standard conditions.” for “in primary culture on a support matrix derived from irradiated fibroblasts.”
as §2

[5] = test system: Monkey kidney (CV-1) cells; assay: Monkey kidney cell proliferation, 3H-thymidine incorporation; assay type: cell-based; conditions: overnight incubation; 10 μl of 1.5 mM stock per 500 μl medium; ±SEM
Procedure: as §1, with “Monkey kidney (CV-1) cells” for “Human keratinocytes”, “under standard conditions.” for “in primary culture on a support matrix derived from irradiated fibroblasts.”
as §2

[6] = topical cream, 6 mg IOP daily, vs vehicle, p<0.05

Row | SMILES | epidermal proliferation (epidermal proliferation; Group 1 mice: control vehicle first, then IOP (FIG. 2)) | epidermal proliferation (epidermal proliferation; Group 2 mice: IOP first, then control vehicle (FIG. 3)) | less epidermal BrdU staining than control mice (epidermal proliferation; [6]) [%] | thinner epidermis than control mice (epidermal proliferation; [6]) [%] | serum T4 levels [1] | inhibition of proliferation of human epidermal keratinocytes relative to control cultures [2] [%] | inhibition of proliferation of human prostate cells relative to control cultures [3] [%] | inhibition of proliferation of opossum kidney cells relative to control cultures [4] [%] | inhibition of proliferation of monkey kidney cells relative to control cultures [5] [%]
1 | CCC(Cc1c(I)cc(I)c(N)c1I)C(=O)O (centres unmarked) [iopanoic acid] | significantly diminished | significantly diminished | 30 | 20 | remained steady; also recorded: not changed | 61±9 | 26±4 |  | 
2 | O=C(NCC(O)CO)c1c(I)c(C(=O)NCC(O)CO)c(I)c(N(CCO)C(=O)CO)c1I (centres unmarked) [ioversol] |  |  |  |  |  |  | 22 |  | 
3 | CN(C)/C=N/c1c(I)cc(I)c(CCC(=O)[O-])c1I.[Na+] [ipodate sodium] |  |  |  |  |  | 14±6 | 30±5 |  | 
4 | CC(C)NCC(O)COc1cccc2ccccc12 (centres unmarked) [propranolol] |  |  |  |  |  | 62±3 | 84±8 | 88±10 | 82±5
